Results reported in US7795226B2, “Control of radiation injury” (Biotempt B.V., priority 2006, dated 2010).

What was measured:
[1] = tested on: BALB/c mice exposed whole body to 10 Gy 137Cs-γ-irradiation; assay: Whole body γ-irradiation (10 Gy), peptide 1.5 hours before irradiation; format: in vivo; details: 10 mg/kg i.p. 1.5 hours before 10 Gy; for Watery eyes / Weight loss: affected/total; for Mortality: dead/total
Experimental: (§1) In the first experiment, 12-week-old female BALB/c mice were treated intraperitoneally with a single injection of either PBS (n=9) or with a peptide (LQGV (SEQ ID NO:117), VLPALP (SEQ ID NO:140), LPGCPRGVNPVVS (SEQ ID NO:114), MTRVLQGVLPALPQVVC (SEQ ID NO:113); n=8, 10 mg/kg). One and a half hours after the treatment, mice were exposed whole body to a single dose of 10 Gy ^137Cs-γ-irradiation. In the second experiment, 12-week-old female BALB/c mice were first exposed whole body to a single dose of 10 Gy ^137Cs-γ-irradiation and then 1.5 hours after the irradiation treated intraperitoneally with a single injection of either PBS (n=9) or with a peptide (n=8 or 9, 10 mg/kg).

[2] = tested on: BALB/c mice exposed whole body to 10 Gy 137Cs-γ-irradiation; assay: Whole body γ-irradiation (10 Gy), peptide 1.5 hours after irradiation; format: in vivo; details: 10 mg/kg i.p. 1.5 hours after 10 Gy; for Watery eyes / Weight loss: affected/total; for Mortality: dead/total
Experimental: as §1

[3] = tested on: gamma-irradiated mice; details: mouse, in vivo; cited from earlier work
[4] = tested on: LPS (E. coli 026:B6)-induced septic shock in BALB/c mice; assay: LPS-induced septic shock, single dose of peptide; format: in vivo; details: single dose 5 mg/kg
Experimental: (§2) Mice used in sepsis or septic shock experiments: Female BALB/c mice of eight to twelve weeks of age were used for all experiments. The animals were bred in our facility under specific pathogen-free conditions according to the protocols described in the […] of European Laboratory Animal Science Associations (FELASA) Working group on Animal Health (Laboratory Animals 28:1-24, 1994).
(§3) Injection protocols: For the endotoxin model, BALB/c mice were injected i.p. with 150-300 μg LPS (E. coli 026:B6; Difco Lab., Detroit, Mich., USA). Control groups were treated with PBS i.p. only. To test the effect of peptides, they were dissolved in PBS and injected i.p. at predetermined points in time after LPS treatment.
(§4) Mice were scored for sickness severity using the following measurement scheme: • 0 No abnormalities. • 1 Percolated fur, but no detectable behavior differences compared to normal mice. • 2 Percolated fur, huddle reflex, responds to stimuli (such as tap on cage), just as active during handling as healthy mouse. • 3 Slower response to tap on cage, passive or docile when handled, but still curious when alone in a new setting. • 4 Lack of curiosity, little or no response to stimuli, quite immobile. • 5 Labored breathing, inability or slow to self-right after being rolled onto back (moribund, sacrificed). • D Dead.
A first set of septic shock experiments were set up to determine which of the peptides LQG, LQGV (SEQ ID NO:117), VLPALP (SEQ ID NO:140), VLPALPQ (SEQ ID NO:143), MTR, MTRV (SEQ ID NO:119), VVC or QVVC (SEQ ID NO:118) were capable of inhibiting lipopolysaccharide (LPS)-induced septic shock in mice by treating mice with a single dose of peptide at two hours after LPS treatment. Peptides were used at 5 mg/kg bodyweight. BALB/c mice were injected i.p. with escalating doses LPS (E. coli 026:B6; Difco Lab., Detroit, Mich. USA), predetermined to be leading to 80 to 100% mortality in 24 to 72 hours.
To test the effect of peptide early in the development of shock, mice were treated at two hours or at 24 hours after treatment with varying doses of LPS by i.p. injection with test peptide at 5 mg/kg bodyweight.

[5] = tested on: high dose LPS (E. coli 026:B6)-induced septic shock in BALB/c mice; assay: high dose LPS-induced septic shock, peptide administered twice; format: in vivo; details: peptide twice (t = 2 and 24 hours) 5 mg/kg
Experimental: as §2, §3, §4
A second set of septic shock experiments were set up to determine which of the peptides LQG, LQGV (SEQ ID NO:117), VLPALP (SEQ ID NO:140), VLPALPQ (SEQ ID NO:143), MTR, MTRV (SEQ ID NO:119), VVC or AQG, AQGV (SEQ ID NO:120), LAG and LAGV (SEQ ID NO:121) were capable of inhibiting high dose LPS-induced septic shock in mice by treating mice with a double dose of peptide at two and 24 hours after LPS treatment. At each treatment, peptides were used at 5 mg/kg bodyweight. BALB/c mice were injected i.p. with high doses LPS (E. coli 026:B6; Difco Lab., Detroit, Mich. USA), predetermined to be leading to 80 to 100% mortality in 24 to 72 hours.

[6] = tested on: LPS (E. coli 026:B6)-induced sepsis in BALB/c mice; assay: endotoxin shock survival after early or late treatment with peptide; format: in vivo
Experimental: as §2, §3
A further set of septic shock experiments were set up to determine which of the peptides LQG, LQGV (SEQ ID NO:117), VLPALP (SEQ ID NO:140), VLPALPQ (SEQ ID NO:143), MTR, MTRV (SEQ ID NO:119), VVC or AQGV (SEQ ID NO:120) under study were most suited to be used early and/or late after or throughout the development of shock. For determining the percent of endotoxin shock survival after late or early treatment with peptide, BALB/c mice were injected i.p. with 300 μg LPS (E. coli 026:B6; Difco Lab., Detroit, Mich. USA), predetermined to be leading to 100% mortality in 48 hours without peptide treatment.
To evaluate the effect of peptide treatment at an early or late point in time of development of shock, mice were treated at two hours or at 24 hours after LPS injection by i.p. injection with test peptide at 5 mg/kg bodyweight. The mice were followed for 84 hours instead of for 48 hours in the earlier experiments.

[7] = tested on: cell-cycle marker pCDG and auxin-responsive marker DR5::GUS; assay: Arabidopsis thaliana seedling cell-cycle analysis (GUS markers)
Experimental: To further study anti-cell-cycle activity of various oligopeptides, a proliferation experiment in Arabidopsis Thaliana seedlings was performed. The aim was to test a group of 140 oligopeptides of varying length for their effect on plant marker gene expression during rapid growth when avid cell division occurs.
The peptides were re-suspended in 1× Phosphate Buffer Saline (PBS) pH 8 to a final concentration of 5 mg/ml. The obtained solutions were then divided through 96-well round bottom plates (Corning Incorporated) at 40 microliters per well. Plates were stored before use at […] for four days. Seeds of Arabidopsis thaliana ecotype Ws-0 were surface sterilized in 2% commercial bleach (Gloria) for ten minutes and washed five times with sterile MQ water. The seeds were then re-suspended with 0.1% agar and plated on MS20 plates supplemented with 80 mg/l Kanamycin.
The plates were placed at […] for two nights and then transferred to a climate room at […] and a 16/8 hours photoperiod. After four days of growth, the seedlings were transferred to 96-well plates containing the peptide solutions (four seedlings per well) and incubated for four and eight hours.
For this experiment, Arabidopsis homozygous seedlings harboring two reporter genes fused to GUS were used. […] After incubation with the compounds, the seedlings were stained for GUS. The staining reaction was performed in 100 mM sodium phosphate buffer (pH 7.0) that contained 10 mM EDTA, 10% DMSO, 0.1% Triton X-100, 2 mM X-Gluc, 0.5 mM K3Fe(CN)6 and 0.5 mM K4Fe(CN)6 at […] for 16 hours. […] Seedlings were fixed and cleared in chloral hydrate solution for detailed microscopic observation and photography under a microscope equipped with DIC optics.
Peptides were tested for an effect on marker gene expression on rapidly growing Arabidopsis young seedlings. This was monitored by changes on GUS distribution in different organs: root, root-hypocotyl transition zone and cotyledons.

Compound: MTRVLQGVLPALPQVVC [residues 41-57 of loop 2 of the beta-subunit of hCG]
- Watery eyes ([1]; day 0 after irradiation): 0/8
- Weight loss ([1]; day 0 after irradiation): 0/8
- Mortality ([1]; day 0 after irradiation): 0/8
- Mortality ([1]; day 3 after irradiation): 0/8
- Watery eyes ([1]; day 4 after irradiation): 1/8
- Weight loss ([1]; day 4 after irradiation): 1/8
- Mortality ([1]; day 4 after irradiation): 0/8
- Mortality ([1]; day 5 after irradiation): 0/8
- Mortality ([1]; day 6 after irradiation): 7/8
- Mortality ([1]; day 7 after irradiation): 8/8
- Watery eyes ([2]; day 0 after irradiation): 0/9
- Weight loss ([2]; day 0 after irradiation): 0/9
- Mortality ([2]; day 0 after irradiation): 0/9
- Mortality ([2]; day 3 after irradiation): 0/9
- Watery eyes ([2]; day 4 after irradiation): 0/9
- Weight loss ([2]; day 4 after irradiation): 9/9
- Mortality ([2]; day 4 after irradiation): 0/9
- Mortality ([2]; day 5 after irradiation): 0/9
- Mortality ([2]; day 6 after irradiation): 5/9
- Mortality ([2]; day 7 after irradiation): 9/9

Compound: LPGCPRGVNPVVS
- Watery eyes ([1]; day 0 after irradiation): 0/8
- Weight loss ([1]; day 0 after irradiation): 0/8
- Mortality ([1]; day 0 after irradiation): 0/8
- Mortality ([1]; day 3 after irradiation): 0/8
- Watery eyes ([1]; day 4 after irradiation): 1/8
- Weight loss ([1]; day 4 after irradiation): 8/8
- Mortality ([1]; day 4 after irradiation): 0/8
- Mortality ([1]; day 5 after irradiation): 0/8
- Mortality ([1]; day 6 after irradiation): 4/8
- Mortality ([1]; day 7 after irradiation): 8/8
- Watery eyes ([2]; day 0 after irradiation): 0/8
- Weight loss ([2]; day 0 after irradiation): 0/8
- Mortality ([2]; day 0 after irradiation): 0/8
- Mortality ([2]; day 3 after irradiation): 0/8
- Watery eyes ([2]; day 4 after irradiation): 0/8
- Weight loss ([2]; day 4 after irradiation): 8/8
- Mortality ([2]; day 4 after irradiation): 0/8
- Mortality ([2]; day 5 after irradiation): 0/8
- Mortality ([2]; day 6 after irradiation): 6/8
- Mortality ([2]; day 7 after irradiation): 8/8

Compound: C[C@]12CCC(=O)C=C1CC[C@@H]1[C@@H]2CC[C@]2(C)C(=O)CC[C@@H]12 [androstenedione]
- protection against gamma-irradiation (in words) [3]: No protection was observed

Compound: C[C@]12CC[C@H]3[C@@H]([C@@H](O)C=C4C[C@@H](O)CC[C@@]43C)[C@@H]1CC[C@@H]2O [AET, 5-androstene-3B,7B, 17B-triol]
- protection against gamma-irradiation (in words) [3]: No protection was observed

Compound: C[C@]12CC[C@H](O)CC1=CC[C@@H]1[C@@H]2CC[C@]2(C)C(=O)CC[C@@H]12 [DHEA, dehydroepiandrosterone]
- protection against gamma-irradiation (in words) [3]: No protection was observed

Compound: VVC
- mice scored D (dead), effect at t = 24 hours ([4]; LPS dose 7**): 1
- mice scored D (dead), effect at t = 48 hours ([4]; LPS dose 7**): 3
- mice with sickness score 1, effect at t = 48 hours ([4]; LPS dose 7**): 1
- mice with sickness score 2, effect at t = 48 hours ([4]; LPS dose 7**): 1
- mice with sickness score 3, effect at t = 24 hours ([4]; LPS dose 7**): 2
- mice with sickness score 3, effect at t = 48 hours ([4]; LPS dose 7**): 1
- mice with sickness score 4, effect at t = 24 hours ([4]; LPS dose 7**): 1
- mice with sickness score 5, effect at t = 24 hours ([4]; LPS dose 7**): 2
- mice with sickness score 2, effect at t = 48 hours ([4]; LPS dose 7*): 4
- mice with sickness score 3, effect at t = 24 hours ([4]; LPS dose 7*): 4
- mice with sickness score 4, effect at t = 24 hours ([4]; LPS dose 7*): 2
- mice with sickness score 5, effect at t = 48 hours ([4]; LPS dose 7*): 2
- mice with sickness score 1, effect at t = 48 hours ([4]; LPS dose 10): 2
- mice with sickness score 2, effect at t = 24 hours ([4]; LPS dose 10): 2
- mice with sickness score 2, effect at t = 48 hours ([4]; LPS dose 10): 2
- mice with sickness score 3, effect at t = 24 hours ([4]; LPS dose 10): 2
- mice with sickness score 4, effect at t = 24 hours ([4]; LPS dose 10): 2
- mice with sickness score 5, effect at t = 48 hours ([4]; LPS dose 10): 2
- mice with sickness score 1, effect at t = 48 hours ([5]; LPS dose 10.5): 2
- mice with sickness score 2, effect at t = 24 hours ([5]; LPS dose 10.5): 5
- mice with sickness score 2, effect at t = 48 hours ([5]; LPS dose 10.5): 3
- mice with sickness score 1, effect at t = 48 hours ([5]; LPS dose 11): 2
- mice with sickness score 2, effect at t = 24 hours ([5]; LPS dose 11): 6
- mice with sickness score 2, effect at t = 48 hours ([5]; LPS dose 11): 4
- % Survival ([6]; 0 hours, peptide 5 mg/kg 2 hours after LPS): 100%
- % Survival ([6]; 0 hours, peptide 5 mg/kg 24 hours after LPS): 100%
- % Survival ([6]; 14 hours, peptide 5 mg/kg 2 hours after LPS): 100%
- % Survival ([6]; 14 hours, peptide 5 mg/kg 24 hours after LPS): 100%
- % Survival ([6]; 24 hours, peptide 5 mg/kg 2 hours after LPS): 100%
- % Survival ([6]; 24 hours, peptide 5 mg/kg 24 hours after LPS): 100%
- % Survival ([6]; 48 hours, peptide 5 mg/kg 2 hours after LPS): 80%
- % Survival ([6]; 48 hours, peptide 5 mg/kg 24 hours after LPS): 100%
- % Survival ([6]; 84 hours, peptide 5 mg/kg 2 hours after LPS): 50%
- % Survival ([6]; 84 hours, peptide 5 mg/kg 24 hours after LPS): 100%
- identified as useful peptide for treatment of radiation injury from cell-cycle studies in plants and in vitro proliferation studies ([7]; Results from Examples 9 and 10): useful
- effect on cell-cycle marker (pCDG) and auxin-responsive marker (DR5::GUS) (in words) ([7]; seedlings incubated four and eight hours, 5 mg/ml peptide solution): clear effect on the tested markers
